# Like-named read-outs stand apart in the source and are kept apart here.
# Legend:
# [1] = test system: Phospho-SLP-76 (Ser376) in Jurkat cells; test: Phospho-SLP-76 (Ser376) HTRF assay in anti-CD3 stimulated Jurkat cells; assay type: cell-based; details: 30 min pre-treatment, anti-CD3 stimulation 15 min, read-out: pSLP76 IC50
# Description: Cell Based Assays Phospho-SLP-76 (Ser376) Homogeneous Time Resolved Fluorescence (HTRF) Assay
# Jurkat cells were seeded at 90,000 cells/well in 90 uL of RPMI1640 growth medium containing 10% FBS and incubated at 37° C. with 5% CO2 overnight. The following day, compounds were serially diluted from a 10 mM top dose for an 11-point 3-fold dilution curve in DMSO. Compounds were intermediately diluted 1:100 into growth media prior to diluting 1:10 on cells for final concentration 10 μM to 0.1 nM in 0.1% DMSO. After 30 min pre-treatment with compounds, the cells were stimulated using 200 μg/mL of F(ab)2 complexed anti-CD3 (clone UCTH1) for 15 min at 37° C. with 5% CO2. Stimulation was stopped with ice cold PBS and cells were harvested by centrifugation before lysis in Cisbio lysis buffer (Cisbio, Bedford, Mass.). Lysates were transferred to white, low-volume plates containing anti-phospho-SLP-76-Cryptate plus anti-phospho-SLP-76-d2 HTRF antibodies and incubated overnight at room temperature protected from light according to the manufacturer's protocol (Cisbio, Bedford, Mass.). HTRF was measured on a Perkin Elmer Envision and IC50 values were calculated by concentration-response curve fitting utilizing four-parameter nonlinear regression analyses.
# [2] = target: human full-length autophosphorylated recombinant HPK1 (Homo sapiens (Human), UniProt Q92918); test: HPK1 biochemical enzyme assay (chelation-enhanced fluorescence, CHEF); details: 0.5 nM HPK1, 45 μM ATP, Morrison fit
# human full-length autophosphorylated recombinant HPK1, sequence (Q92918 other isoform, or with tags, fused parts or gaps): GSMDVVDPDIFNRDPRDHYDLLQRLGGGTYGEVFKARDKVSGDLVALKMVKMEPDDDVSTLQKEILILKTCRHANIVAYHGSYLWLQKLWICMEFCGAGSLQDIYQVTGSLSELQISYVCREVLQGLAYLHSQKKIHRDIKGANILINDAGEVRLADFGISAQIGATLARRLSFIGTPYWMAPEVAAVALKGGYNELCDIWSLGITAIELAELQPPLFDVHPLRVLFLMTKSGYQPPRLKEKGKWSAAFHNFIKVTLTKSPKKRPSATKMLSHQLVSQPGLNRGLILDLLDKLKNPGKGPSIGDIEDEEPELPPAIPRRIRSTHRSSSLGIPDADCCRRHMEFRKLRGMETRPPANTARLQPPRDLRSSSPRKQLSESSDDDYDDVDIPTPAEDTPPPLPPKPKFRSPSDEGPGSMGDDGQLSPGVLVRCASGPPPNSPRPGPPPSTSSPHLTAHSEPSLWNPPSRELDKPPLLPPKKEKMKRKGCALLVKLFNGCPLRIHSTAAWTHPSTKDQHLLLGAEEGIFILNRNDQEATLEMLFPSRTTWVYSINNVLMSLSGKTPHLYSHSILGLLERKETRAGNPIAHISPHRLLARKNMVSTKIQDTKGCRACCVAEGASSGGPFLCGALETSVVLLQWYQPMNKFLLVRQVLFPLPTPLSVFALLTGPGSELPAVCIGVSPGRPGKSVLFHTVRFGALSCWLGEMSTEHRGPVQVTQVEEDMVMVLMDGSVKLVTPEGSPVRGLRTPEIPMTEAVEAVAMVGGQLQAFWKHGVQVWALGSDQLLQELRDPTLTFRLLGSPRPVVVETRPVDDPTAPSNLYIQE
# Outline: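 Autophosphorylated full-length human HPK1 from Sf21 cells, His-tag removed by TEV, residual N-terminal Gly-Ser. Activity measured with a C-Sox fluorescent peptide substrate (CHEF); initial velocities followed at λex 360/λem 500 nm, 30 °C for 15 min.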
compound,measurement,setting,value
"4-[(1ξ)-1- aminoethyl]-2- {6-[(5R)-5- (fluoromethyl)- 6,7-dihydro- 5H-pyrrolo[2,1- c][1,2,4]triazol- 3-yl]pyridin-2- yl}-6-[(2R)-2- methylpyrroli- din-1-yl]-2,3- dihydro-1H- pyrrolo[3,4- c]pyridin-1-one [Example 18]",IC50,[1],42 nM
same,Ki,[2],< 0.05 nM
"CCCn1cnnc1-c1cccc(N2Cc3c(cc(N4CCC[C@H]4C)nc3[C@@H](C)N)C2=O)n1 (single isomer, unassigned) [Example 101]",IC50,"[1]; Homo sapiens, Jurkat",118 nM
same,Ki,[2],0.17 nM
"CC[C@@H](N)c1nc(N(C)C)cc2c1CN(c1cccc(-c3nnc4n3[C@@H](CF)CC4)n1)C2=O [Example 33, 4-[(1R)-1-aminopropyl]-6-(dimethyl-amino)-2-{6-[(5R)-5-(fluoromethyl)-6,7-dihydro-5H-pyrrolo [2,1-c][1,2,4]triazol-3-yl]pyridin-2-yl}-2,3-dihydro-1H-pyrrolo[3,4-c]pyridin-1-one]",IC50,"[1]; Homo sapiens, Jurkat",179 nM
same,Ki,[2],0.21 nM
"CCN(C)c1cc2c(c([C@@H](C)N)n1)CN(c1cccc(-c3nncn3CC)n1)C2=O (single isomer, unassigned) [Example 129, 4-[(1ξ)-1-aminoethyl]-6-[ethyl(methyl)amino]-2-[6-(4-ethyl-4H-1,2,4-triazol-3-yl)pyridin-2-yl]-2,3-dihydro-1H-pyrrolo[3,4-c]pyridin-1-one]",IC50,"[1]; Homo sapiens, Jurkat",97 nM
same,Ki,[2],0.28 nM
"CCn1cnnc1-c1cccc(N2Cc3c(cc(C4(C)CC4)nc3C(C)(C)N)C2=O)n1 [Example 114, 4-(2-aminopropan-2-yl)-2-[6-(4-ethyl-4H-1,2,4-triazol-3-yl)pyridin-2-yl]-6-(1-methylcyclo-propyl)-2,3-dihydro-1H-pyrrolo[3,4-c]pyridin-1-one]",IC50,"[1]; Homo sapiens, Jurkat",148 nM
same,Ki,[2],0.41 nM
"CCn1cnnc1-c1cccc(N2Cc3c(cc(N4CCC[C@H]4C)nc3[C@H](C)NC)C2=O)n1 (single isomer, unassigned) [Example 109]",IC50,"[1]; Homo sapiens, Jurkat",61 nM
same,Ki,[2],0.31 nM
"CCn1c(C)nnc1-c1cccc(N2Cc3c(cc(N4CCC[C@H]4C)nc3C(C)(C)N)C2=O)n1 [Example 134, 4-(2-aminopropan-2-yl)-2-[6-(4-ethyl-5-methyl-4H-1,2,4-triazol-3-yl)pyridin-2-yl]-6-[(2R)-2-methylpyrroli-din-1-yl]-2,3-dihydro-1H-pyrrolo[3,4-c]pyridin-1-one]",IC50,"[1]; Homo sapiens, Jurkat",106 nM
same,Ki,[2],0.22 nM
"CC[C@H](N)c1nc(C2(C)CC2)cc2c1CN(c1cccc(-c3nncn3CC)n1)C2=O (single isomer, unassigned) [Example 120, 4-[(1ξ)-1-aminopropyl]-2-[6-(4-ethyl-4H-1,2,4-triazol-3-yl)pyridin-2-yl]-6-(1-methylcyclo-propyl)-2,3-dihydro-1H-pyrrolo[3,4-c]pyridin-1-one]",IC50,"[1]; Homo sapiens, Jurkat",531 nM
same,Ki,[2],2.97 nM
"CCN(C)c1cc2c(c([C@H](C)N)n1)CN(c1cccc(-c3nncn3CC)n1)C2=O (single isomer, unassigned) [Example 130, 4-[(1ξ)-1-aminoethyl]-6-[ethyl(methyl)amino]-2-[6-(4-ethyl-4H-1,2,4-triazol-3-yl)pyridin-2-yl]-2,3-dihydro-1H-pyrrolo[3,4-c]pyridin-1-one]",IC50,"[1]; Homo sapiens, Jurkat",77 nM
same,Ki,[2],0.4 nM
"CNCc1nc(N(C)C(C)C)cc2c1CN(c1cccc(-c3nnc4n3[C@@H](CF)CC4)n1)C2=O [Example 205, 2-{6-[(5R)-5-(fluoromethyl)-6,7-dihydro-5H-pyrrolo[2,1-c][1,2,4]triazol-3-yl]pyridin-2-yl}-4-[(methyl-amino)methyl]-6-[methyl (propan-2-yl)amino]-2,3-dihydro-1H-pyrrolo[3,4-c] pyridin-1-one]",IC50,"[1]; Homo sapiens, Jurkat",52 nM
same,Ki,[2],< 0.05 nM
"C[C@@H]1CCCN1c1cc2c(c(C(C)(C)N)n1)CN(c1cccc(-c3nnc4n3[C@@H](C)CC4)n1)C2=O [Example 17, 4-(2-aminopropan-2-yl)-2-{6-[(5S)-5-methyl-6,7-dihydro-5H-pyrrolo[2,1-c][1,2,4]triazol-3-yl]pyridin-2-yl}-6-[(2R)-2-methylpyrroli-din-1-yl]-2,3-dihydro-1H-pyrrolo[3,4-c]pyridin-1-one]",IC50,"[1]; Homo sapiens, Jurkat",23 nM
same,Ki,[2],< 0.05 nM
"CC(C)N(C)c1cc2c(c([C@@H](C)N)n1)CN(c1cccc(-c3nnc4n3[C@@H](CF)CC4)n1)C2=O [Example 29, 4-[(1R)-1-aminoethyl]-2-{6-[(5R)-5-(fluoromethyl)-6,7-dihydro-5H-pyrrolo[2,1-c][1,2,4]triazol-3-yl]pyridin-2-yl}-6-[methyl(propan-2-yl)amino]-2,3-dihydro-1H-pyrrolo[3,4-c]pyridin-1-one]",IC50,"[1]; Homo sapiens, Jurkat",72 nM
same,Ki,[2],0.2 nM
"CC[C@@H](N)c1nc(N2CCC[C@H]2C)cc2c1CN(c1cccc(-c3nnc4n3[C@@H](CF)CC4)n1)C2=O [Example 32, 4-[(1R)-1-aminopropyl]-2-{6-[(5R)-5-(fluoromethyl)-6,7-dihydro-5H-pyrrolo[2,1-c][1,2,4]triazol-3-yl]pyridin-2-yl}-6-[(2R)-2-methylpyrroli-din-1-yl]-2,3-dihydro-1H-pyrrolo[3,4-c]pyridin-1-one]",IC50,"[1]; Homo sapiens, Jurkat",46 nM
same,Ki,[2],0.06 nM
"CNCc1nc(N(C)C(C)C)cc2c1CN(c1cccc(-c3nnc4n3[C@@H](C)CC4)n1)C2=O [Example 210, 4-[(methyl-amino)methyl]-2-{6-[(5S)-5-methyl-6,7-dihydro-5H-pyrrolo[2,1-c] [1,2,4]triazol-3-yl]pyridin-2-yl}-6-[methyl (propan-2-yl)amino]-2,3-dihydro-1H-pyrrolo[3,4-c] pyridin-1-one]",IC50,"[1]; Homo sapiens, Jurkat",47 nM
same,Ki,[2],< 0.05 nM
"CCn1cnnc1-c1cccc(N2Cc3c(cc(C4(C)CC4)nc3[C@H](C)NC)C2=O)n1 [Example 112, 2-[6-(4-ethyl-4H-1,2,4-triazol-3-yl)pyridin-2-yl]-4-[(1S)-1-(methylamino)ethyl]-6-(1-methylcyclo-propyl)-2,3-dihydro-1H-pyrrolo[3,4-c]pyridin-1-one]",IC50,"[1]; Homo sapiens, Jurkat",421 nM
same,Ki,[2],0.77 nM
"CCCn1c(C)nnc1-c1cccc(N2Cc3c(cc(N4CCC[C@H]4C)nc3C(C)(C)N)C2=O)n1 [Example 133, 4-(2-aminopropan-2-yl)-2-[6-(5-methyl-4-propyl-4H-1,2,4-triazol-3-yl)pyridin-2-yl]-6-[(2R)-2-methylpyrroli-din-1-yl]-2,3-dihydro-1H-pyrrolo[3,4-c]pyridin-1-one]",IC50,"[1]; Homo sapiens, Jurkat",95 nM
same,Ki,[2],0.12 nM
"CCn1c(C)nnc1-c1cccc(N2Cc3c(cc(N4CCC[C@H]4C)nc3[C@@H](C)NC)C2=O)n1 (single isomer, unassigned) [Example 107]",IC50,"[1]; Homo sapiens, Jurkat",140 nM
same,Ki,[2],1.02 nM
"C[C@@H]1CCc2nnc(-c3cccc(N4Cc5c(cc(N(C)C)nc5C(C)(C)N)C4=O)n3)n21 (single isomer, unassigned) [Example 23, 4-(2-aminopropan-2-yl)-6-(dimethyl-amino)-2-{6-[(5ξ)-5-methyl-6,7-dihydro-5H-pyrrolo[2,1-c][1,2,4]triazol-3-yl]pyridin-2-yl}-2,3-dihydro-1H-pyrrolo[3,4-c]pyridin-1-one]",IC50,"[1]; Homo sapiens, Jurkat",329 nM
same,Ki,[2],5 nM
"CNCc1nc(N(C)C)cc2c1CN(c1cccc(-c3nnc4n3[C@@H](C)CC4)n1)C2=O [Example 208, 6-(dimethyl-amino)-4-[(methylamino)methyl]-2-{6-[(5S)-5-methyl-6,7-dihydro-5H-pyrrolo[2,1-c] [1,2,4]triazol-3-yl]pyridin-2-yl}-2,3-dihydro-1H-pyrrolo[3,4-c] pyridin-1-one]",IC50,"[1]; Homo sapiens, Jurkat",85 nM
same,Ki,[2],0.6 nM
"CCn1cnnc1-c1cccc(N2Cc3c(cc(N4CCC[C@H]4C)nc3[C@@H](C)N)C2=O)n1 (single isomer, unassigned) [Example 151]",IC50,"[1]; Homo sapiens, Jurkat",33 nM
same,Ki,[2],0.12 nM
"CCCn1c(C)nnc1-c1cccc(N2Cc3c(cc(N(C)C(C)C)nc3[C@@H](C)N)C2=O)n1 (single isomer, unassigned) [Example 148, 4-[(1ξ)-1-aminoethyl]-6-[methyl (propan-2-yl)amino]-2-[6-(5-methyl-4-propyl-4H-1,2,4-triazol-3-yl)pyridin-2-yl]-2,3-dihydro-1H-pyrrolo[3,4-c]pyridin-1-one]",IC50,"[1]; Homo sapiens, Jurkat",96 nM
same,Ki,[2],0.4 nM
"COC[C@@H](N)c1nc(C2(C)CC2)cc2c1CN(c1cccc(-c3nnc4n3[C@@H](CF)CC4)n1)C2=O (single isomer, unassigned) [Example 35]",IC50,"[1]; Homo sapiens, Jurkat",181 nM
same,Ki,[2],0.3 nM
"CC[C@@H](N)c1nc(N(C)C(C)C)cc2c1CN(c1cccc(-c3nnc4n3[C@@H](CO)CC4)n1)C2=O [Example 20, 4-[(1R)-1-aminopropyl]-2-{6-[(5R)-5-(hydroxy-methyl)-6,7-dihydro-5H-pyrrolo[2,1-c][1,2,4]triazol-3-yl]pyridin-2-yl}-6-[methyl(propan-2-yl)amino]-2,3-dihydro-1H-pyrrolo[3,4-c]pyridin-1-one]",IC50,"[1]; Homo sapiens, Jurkat",23 nM
same,Ki,[2],< 0.05 nM

# — patent US11684616B2, “Azalactam compounds as HPK1 inhibitors” (PFIZER INC., priority 2020, dated 2023)
